According to patent publication US4368194A, “Pharmacologically active amine boranes” (The United States of America as represented by the …, priority 1981, dated 1983):
Where two headings read alike, the source gives them in different places.

What was measured:
Sprague Dawley rats [1] = assay: Red and white blood cell counts after 3 weeks dosing; format: in vivo; conditions: dosing for three weeks intraperitoneally, rats
Excerpt: Hematocrits were also obtained.

liver mitochondria [2] = assay: Oxidative phosphorylation, succinate as substrate; format: biochemical, rats; conditions: 5 μmoles; for Oxidative Phosphorylation Succinate State 3: ADP stimulated respiration; for Oxidative Phosphorylation Succinate State 4: basal respiration
Procedure, shortened: (§1)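 Basal and ADP-stimulated respiration of 10% liver homogenates, with succinate (90 μmoles) or α-ketoglutarate (60 μmoles) as substrate, in sucrose/KCl/K2HPO4 medium. Test compounds at 5 μmoles in 1% CMC in 1.8 ml total. Rate given as μl O2 consumed/hr/mg wet liver weight.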

Cathepsin [3] = assay: Lysosomal free cathepsin activity, liver homogenate; format: biochemical, rats; conditions: 5 μmoles; for Liver % Free Cathepsin Activity, pH5: in vitro, 20 min
Procedure, shortened: (§2)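 Rat (Sprague Dawley) liver 10% homogenate in 0.25 M sucrose/0.001 M EDTA pH 7.2, incubated 20 min with 5 μmoles test drug in 1% CMC. Acid phosphatase: 0.1 M β-glycerol phosphate, acetate pH 5.0, inorganic phosphate read; cathepsin: 2% azocasein, pH 5.0, acid-soluble fragments at 366 nm. Percent free activity vs. total (0.02% detergent-released).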

CF1 male mice = assay: Writhing reflex (acetic acid); format: in vivo; conditions: for Writhing Reflex: mice; for inhibition of the writhing reflex: text summary of Table II
Procedure, shortened: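 CF1 male mice were dosed with test drug at 20 mg/kg i.p. 20 min before 0.5 ml of 0.6% acetic acid. Abdominal stretches with hind-limb extension were counted over 10 min, starting 5 min after acid.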

Male Sprague Dawley rats = assay: Chronic adjuvant arthritic screen; format: in vivo
Experimental: Male Sprague Dawley rats (about 160 g) were injected at the base of the tail with 0.2 ml of solution of killed and dried Mycobacterium butyricum and digitonin in mineral oil (see Waksman et al., J. Immunol., 85, 403 1960). Test drugs were administered intraperitoneally commencing on day 3 through day 20 at 2.5 mg/kg/day. Animals were sacrificed on day 21, and the feet were excised and weighed.

liver mitochondria [4] = assay: Oxidative phosphorylation, α-ketoglutarate as substrate; format: biochemical, rats; conditions: 5 μmoles; for Oxidative Phosphorylation α Ketoglutarate State 3: ADP stimulated respiration; for Oxidative Phosphorylation α Ketoglutarate State 4: basal respiration
Procedure, shortened: as §1

Sprague Dawley rats [5] = assay: Anti-pyretic screen; format: in vivo
Experimental: Sprague Dawley rats (about 200 g) were administered 2 ml of a 44% solution of Baker's yeast subcutaneously (see Roszkowski et al., supra) 18 hr prior to the injection of drugs at 2.5 or 5 mg/kg intraperitoneally resulting in an elevation of 3.46° F. Alternatively, rats were administered 0.25 mg killed and dried Mycobacterium butyricum (Difco) (see Randall et al., Arch int Pharmacodyn et De Ther, 220, 94 1976) subcutaneously prior to the administration of drugs. Rectal temperatures were taken immediately prior to and 2, 4, and 6 hr after drug administration.

cAMP levels in PMNs = assay: Cyclic-3',5'-adenosine monophosphate levels (cAMP) in PMNs; format: cell-based; conditions: 1 h
Procedure, shortened: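 Glycogen-elicited peritoneal neutrophils in MEM with 10% FCS, pH 7.4, exposed to test drugs at 5μ moles for 1 hr at 37° C; stopped with 6% trichloroacetic acid. cAMP measured by radioimmunoassay with 3H-cAMP tracer, expressed as p mole/10^7 PMNs.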

Cathepsin [6] = assay: Lysosomal free cathepsin activity, PMNs; format: cell-based; conditions: 5 μmoles; for PMNs % Free Cathespin Activity, pH5: in vitro, 60 min
Procedure, shortened: (§3)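 Glycogen-elicited peritoneal PMNs, or liver homogenate, incubated with 5 μmoles test drug in 1% CMC for 60 or 20 min at pH 5.0. Acid phosphatase: 0.1 M β-glycerol phosphate, inorganic phosphate read; cathepsin: 2% azocasein, acid-soluble peptides at 366 nm. Free activity expressed as percent of detergent-released total.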

Acid phosphatase [7] = assay: Lysosomal free acid phosphatase activity, liver homogenate; format: biochemical, rats; conditions: 5 μmoles, in vitro; 20 min
Procedure, shortened: as §2

Acid phosphatase [8] = assay: Lysosomal free acid phosphatase activity, PMNs; format: cell-based; conditions: 5 μmoles; for PMNs % Free Acid Phosphatase Activity, pH5: in vitro, 60 min
Procedure, shortened: as §3

[9] = target: T1, prostaglandin synthetase from beef seminal vesicle (Bos taurus, UniProt O62664); assay: Prostaglandin synthetase activity; format: biochemical; conditions: for inhibition at 1 µM / activity at 1 µM: 10^-6 M
T1 construct: purchased; host or cells: beef seminal vesicle
T1 sequence (O62664 25-600): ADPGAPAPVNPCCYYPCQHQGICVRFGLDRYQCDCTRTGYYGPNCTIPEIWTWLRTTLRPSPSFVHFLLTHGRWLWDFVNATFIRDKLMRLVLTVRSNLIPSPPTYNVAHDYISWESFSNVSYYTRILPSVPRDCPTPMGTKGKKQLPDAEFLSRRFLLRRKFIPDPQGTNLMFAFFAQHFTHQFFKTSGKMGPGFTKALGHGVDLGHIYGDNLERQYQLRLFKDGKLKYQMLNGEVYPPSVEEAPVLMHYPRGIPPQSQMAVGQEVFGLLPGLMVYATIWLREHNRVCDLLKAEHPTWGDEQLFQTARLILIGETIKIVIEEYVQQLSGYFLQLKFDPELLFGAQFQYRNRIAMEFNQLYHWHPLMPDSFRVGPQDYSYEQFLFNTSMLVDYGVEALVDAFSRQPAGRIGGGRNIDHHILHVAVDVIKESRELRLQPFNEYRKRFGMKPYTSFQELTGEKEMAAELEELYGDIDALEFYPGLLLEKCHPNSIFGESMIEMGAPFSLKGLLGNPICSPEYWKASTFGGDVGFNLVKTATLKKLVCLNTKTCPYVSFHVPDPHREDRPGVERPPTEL
Experimental: After 1 hr at 37° C. the reaction was stopped with 1 N HCl and extracted with ethyl ether and evaporated. […] The plates were dried and developed in iodine vapor and with the use of prostaglandin standards the appropriate areas were scraped and counted for ^3 H content. Indometacin was used as a standard at 10^-4 M concentration. Test drugs were used at 10^-6 M.

[10] = tested on: carrageenan induced edema in mouse foot pads; assay: Anti-inflammatory screen (carrageenan induced foot edema); format: in vivo, mice; conditions: for Anti-inflammatory Screen: mice; for inhibition of the carrageenan induced edema in mouse foot pads: text summary of Table II
Procedure, shortened: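 Male CF1 mice (~30 g) given 10 mg/kg i.p. in 0.05% polysorbate 80-water, 3 hr and 30 min before 0.05 ml 2% carrageenan injected into the right hind plantar surface, with saline in the left foot as baseline. Feet excised at the ankle after 3 hr and weight increase measured.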

[11] = Hydrolytic, air and moisture stability
in vivo = conditions: mouse
[12] = pH 7.4, read-out: PMNs cAMP Level
[13] = read-out: inhibition of prostaglandin synthesis
[14] = 1 h, read-out: Prostaglandin Synthesis
[15] = indomethacin tested at 10 mg/kg

Row | Compound | Oxidative Phosphorylation Succinate State 3 (liver mitochondria [2]) | Oxidative Phosphorylation Succinate State 4 (liver mitochondria [2]) | Liver % Free Cathepsin Activity, pH5 (Cathepsin [3]) | Writhing Reflex (CF1 male mice; 20 mg/kg intraperitoneally) | inhibition of the writhing reflex (CF1 male mice) | Oxidative Phosphorylation α Ketoglutarate State 3 (liver mitochondria [4]) | Oxidative Phosphorylation α Ketoglutarate State 4 (liver mitochondria [4]) | activity at 5 µmol (cAMP levels in PMNs; [12]) | PMNs % Free Cathespin Activity, pH5 (Cathepsin [6]) | Liver % Free Acid Phosphatase Activity, pH5 (Acid phosphatase [7]) | inhibition of free acid phosphatase activity in PMNs (Acid phosphatase [8]) | PMNs % Free Acid Phosphatase Activity, pH5 (Acid phosphatase [8]) | inhibition at 1 µM [9, 13] | activity at 1 µM [9, 14] | Anti-inflammatory Screen ([10]; 10 mg/kg × 2 intraperitoneally) | inhibition of the carrageenan induced edema in mouse foot pads [10] | other results
1 | C[N+](C)(C)[BH2-]C#N [Compound V, trimethylamine-cyanoborane] | 51 ± 20 % Control | 133 ± 20 % Control | 0 ± 2 % Control | 18 % Control | 80% | 42 ± 9 % Control | 85 ± 21 % Control | 245% | 4 ± 2 % Control | 69 ± 4 % Control | 65% | 35 ± 5 % Control | > 30% | 59 ± 6% | 42 % Control | at least 50% | alteration of the red blood or white blood cell count/cu mm (Sprague Dawley rats [1]): no alteration; inhibition of free proteolytic cathepsin activity of liver (Cathepsin [3]): 100%; inhibition in the rat induced arthritic screen (Male Sprague Dawley rats; 1.25 mg/kg/day intraperitoneally): 75%; inhibition in the rat induced arthritic screen (Male Sprague Dawley rats; 5 mg/kg/day intraperitoneally): 100%; inhibition in the rat induced arthritic screen (Male Sprague Dawley rats; 10 mg/kg/day intraperitoneally): 100%; both states 3 and 4 respiration with α-ketoglutarate (liver mitochondria [4]): inhibited; inhibition of elevated body temperature (Sprague Dawley rats [5]; 5 mg/kg): no inhibition; inhibition of elevated body temperature (Sprague Dawley rats [5]; 10 mg/kg): no inhibition; activation at 5 µmol (cAMP levels in PMNs; read-out: increase of cyclic adenosine monophosphate levels in PMNs): 145%
2 | COc1ccc2c(c1)c(CC(=O)O)c(C)n2C(=O)c1ccc(Cl)cc1 [Indomethacin, reference compound] | – | – | 67 ± 6 % Control | – | – | – | – | 80% | 100 ± 1 % Control | 86 ± 4 % Control | – | 100 ± 2 % Control | 24% | – | – | – | Writhing Reflex (CF1 male mice; [15]): 43 % Control; Anti-Arthritic Screen (Male Sprague Dawley rats; indomethacin tested at 10 mg/kg, rats): 27 % Control; inhibition at 100 µM ([9]; 10^-4 M, read-out: inhibition of prostaglandin synthesis): 36%; activity at 100 µM ([9]; 1 h, 10^-4 M (indomethacin), read-out: Prostaglandin Synthesis): 64 ± 2%; Anti-inflammatory Screen [10, 15]: 22 % Control
3 | C[N+](C)(C)[BH2-]C(=O)O [VIII, trimethylamine-carboxyborane] | 63 ± 4 % Control | 122 ± 14 % Control | 56 ± 6 % Control | 29 % Control | 70% | 70 ± 20 % Control | 127 ± 22 % Control | – | 14 ± 4 % Control | 82 ± 5 % Control | 50% | 50 ± 3 % Control | – | 93 ± 3% | 79 % Control | – | uncoupling with α-ketoglutarate as substrate (liver mitochondria [4]): uncoupling; activity at 5 µmol (cAMP levels in PMNs; pH 7.4, 5 μmoles, in vitro, read-out: PMNs cAMP Level): 99%; inhibition of PMN cathepsin activity (Cathepsin [6]): at least 82%; stability to air and water/moisture [11]: stable in air and H2 O
4 | N#C[BH2-][NH3+] [XVII, ammonia-cyanoborane] | 60 ± 11 % Control | 112 ± 7 % Control | 48 ± 6 % Control | 50 % Control | – | 40 ± 9 % Control | 149 ± 27 % Control | 93% | 26 ± 4 % Control | 75 ± 5 % Control | – | 100 ± 2 % Control | > 30% | 55 ± 6% | 51 % Control | at least 40% | LD50 (in vivo): 30 mg/kg; loss of hydrogen (hydrolytic stability) ([11]; concentrated HCl, 70 hr, room temperature): 8%
